# What was measured:
# hCav3.1 = molecular target: T1, hCav3.1 (Homo sapiens, UniProt O43497); assay: PatchXpress patch clamp, voltage dependent block (half-inactivated state); type: cell-based
# T1 construct: expressed in transfected cells; host or cells: HEK-293
# [1] = tested on: adult patients with essential tremor; assay: Essential tremor trial Example 16 Part A (open label 20-40 mg): TETRAS efficacy; type: in vivo, human; conditions: for TETRAS CULS Score CFB LS Mean / TETRAS PS Item 6: Archimedes Spiral (Left) Score CFB LS Mean / TETRAS PS Item 6: Archimedes Spiral (Right) Score CFB LS Mean / TETRAS PS Item 7: Handwriting Score CFB LS Mean / TETRAS PSTS Score CFB LS Mean / TETRAS ULS Score CFB LS Mean / TETRAS CULS CTA LS Mean % / TETRAS PS Item 6: Archimedes Spiral (Left) CTA LS Mean % / TETRAS PS Item 6: Archimedes Spiral (Right) CTA LS Mean % / TETRAS PS Item 7: Handwriting CTA LS Mean % / TETRAS PSTS CTA LS Mean % / TETRAS ULS CTA LS Mean %: FAS
# Protocol: A two part trial (Part A and Part B as described below) was conducted to study the efficacy, safety, tolerability, and pharmacokinetics of the compound of formula (I) in adult patients with essential tremor (ET).
# Participants were males and females ages 18 and older with a clinical diagnosis of ET. Participants who have a history of any other medical, neurological, or psychiatric condition that may explain or cause tremor were excluded. Participants who have previously received treatment with formula (I) in any clinical trial (including Part A of the current trial for participants enrolling in Part B) were also excluded.
# In Part A, an open label trial was conducted.
# [2] = Day 7, change from pre-dose baseline
# [3] = Day 7, change in tremor amplitude from pre-dose baseline
# [4] = Day 14, change from pre-dose baseline
# [5] = Day 14, change in tremor amplitude from pre-dose baseline
# [6] = Day 21 (FU Assessment), change from pre-dose baseline
# [7] = Day 21 (FU Assessment), change in tremor amplitude from pre-dose baseline
# T1 sequence (O43497 whole entry): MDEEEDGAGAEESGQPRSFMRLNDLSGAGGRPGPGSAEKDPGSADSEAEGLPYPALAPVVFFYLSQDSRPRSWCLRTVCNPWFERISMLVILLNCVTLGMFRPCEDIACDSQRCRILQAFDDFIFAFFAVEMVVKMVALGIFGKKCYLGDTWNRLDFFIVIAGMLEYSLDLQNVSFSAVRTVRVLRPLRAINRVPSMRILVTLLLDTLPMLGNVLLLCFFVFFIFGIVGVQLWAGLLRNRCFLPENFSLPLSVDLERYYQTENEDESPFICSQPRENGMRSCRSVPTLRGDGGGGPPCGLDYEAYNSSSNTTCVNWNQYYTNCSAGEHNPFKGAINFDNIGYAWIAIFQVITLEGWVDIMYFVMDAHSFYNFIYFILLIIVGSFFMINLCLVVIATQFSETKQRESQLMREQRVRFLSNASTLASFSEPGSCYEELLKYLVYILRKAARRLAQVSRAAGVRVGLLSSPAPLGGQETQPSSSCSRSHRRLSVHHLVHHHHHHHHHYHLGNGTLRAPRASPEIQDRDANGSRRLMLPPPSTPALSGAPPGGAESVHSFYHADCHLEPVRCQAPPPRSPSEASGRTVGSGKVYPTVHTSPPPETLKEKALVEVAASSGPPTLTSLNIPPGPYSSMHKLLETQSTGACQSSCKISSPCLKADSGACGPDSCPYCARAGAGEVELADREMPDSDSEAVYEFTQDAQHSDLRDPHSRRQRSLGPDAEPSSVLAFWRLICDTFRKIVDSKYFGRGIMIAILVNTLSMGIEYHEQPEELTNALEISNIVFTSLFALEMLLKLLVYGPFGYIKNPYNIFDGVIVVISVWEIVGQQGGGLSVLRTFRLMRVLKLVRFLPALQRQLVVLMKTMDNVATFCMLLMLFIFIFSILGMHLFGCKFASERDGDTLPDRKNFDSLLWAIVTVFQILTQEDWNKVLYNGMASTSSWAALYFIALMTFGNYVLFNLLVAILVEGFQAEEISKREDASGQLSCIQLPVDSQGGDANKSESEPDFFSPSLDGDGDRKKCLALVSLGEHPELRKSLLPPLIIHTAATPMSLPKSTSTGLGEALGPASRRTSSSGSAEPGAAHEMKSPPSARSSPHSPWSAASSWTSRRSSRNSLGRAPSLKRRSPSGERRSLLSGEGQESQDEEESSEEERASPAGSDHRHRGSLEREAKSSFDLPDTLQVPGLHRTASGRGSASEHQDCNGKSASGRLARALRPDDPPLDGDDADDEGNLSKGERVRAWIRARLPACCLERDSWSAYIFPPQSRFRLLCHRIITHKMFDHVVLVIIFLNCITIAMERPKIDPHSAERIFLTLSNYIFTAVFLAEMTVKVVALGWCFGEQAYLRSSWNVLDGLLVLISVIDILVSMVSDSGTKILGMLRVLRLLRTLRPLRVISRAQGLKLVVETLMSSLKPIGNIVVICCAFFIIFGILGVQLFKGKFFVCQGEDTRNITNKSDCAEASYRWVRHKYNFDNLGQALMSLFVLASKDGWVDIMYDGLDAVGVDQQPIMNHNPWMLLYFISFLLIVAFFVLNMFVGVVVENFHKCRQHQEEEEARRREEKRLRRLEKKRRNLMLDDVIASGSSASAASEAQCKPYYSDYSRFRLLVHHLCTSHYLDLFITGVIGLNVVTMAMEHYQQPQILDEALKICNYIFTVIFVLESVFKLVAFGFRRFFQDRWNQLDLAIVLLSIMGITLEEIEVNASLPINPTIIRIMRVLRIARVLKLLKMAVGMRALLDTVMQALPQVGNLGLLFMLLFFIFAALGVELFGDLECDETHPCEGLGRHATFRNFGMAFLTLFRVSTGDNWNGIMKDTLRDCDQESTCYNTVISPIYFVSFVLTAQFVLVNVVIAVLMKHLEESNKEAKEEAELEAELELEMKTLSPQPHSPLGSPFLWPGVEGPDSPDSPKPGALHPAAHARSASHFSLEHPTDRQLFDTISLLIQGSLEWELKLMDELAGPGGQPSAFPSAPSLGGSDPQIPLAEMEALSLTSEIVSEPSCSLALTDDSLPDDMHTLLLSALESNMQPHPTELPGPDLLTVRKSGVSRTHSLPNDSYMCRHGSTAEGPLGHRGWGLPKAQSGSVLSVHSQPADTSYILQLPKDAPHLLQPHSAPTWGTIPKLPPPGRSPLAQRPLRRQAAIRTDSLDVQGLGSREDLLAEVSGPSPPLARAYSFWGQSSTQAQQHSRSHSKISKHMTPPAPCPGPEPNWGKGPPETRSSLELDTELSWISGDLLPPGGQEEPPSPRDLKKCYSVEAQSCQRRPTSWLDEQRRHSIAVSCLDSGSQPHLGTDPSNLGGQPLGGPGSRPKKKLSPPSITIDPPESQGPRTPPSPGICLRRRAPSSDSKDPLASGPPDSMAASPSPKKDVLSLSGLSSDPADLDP
structure (smiles),measurement,setting,value
"CC(C)(C)NC(=O)CN1CCC(CNC(=O)c2cc(F)cc(Cl)c2)CC1.Cl [compound of formula (II), N-((1-(2-(tert-butylamino)-2-oxoethyl)piperidin-4-yl)methyl)-3-chloro-5-fluorobenzamide hydrochloride]",tonic block/voltage dependent block (TB/VDB) ratio,hCav3.1,3.8
"CC(C)(C)NC(=O)CN1CCC(CNC(=O)c2cc(F)cc(Cl)c2)CC1 [compound of formula (I), N-((1-(2-(tert-butylamino)-2-oxoethyl)piperidin-4-yl)methyl)-3-chloro-5-fluorobenzamide]","TETRAS combined upper limb score, LS mean change from pre-dose baseline",[1]; Day 7,−1.667
same,"TETRAS upper limb score, LS mean change from pre-dose baseline",[1]; Day 7,−1.427
same,reduction in combined upper limb tremor amplitude,[1]; Day 7,16.0%
same,reduction in upper limb tremor amplitude,[1]; Day 7,23.9%
same,"TETRAS combined upper limb score, LS mean change from pre-dose baseline",[1]; Day 14,−4.239
same,"TETRAS upper limb score, LS mean change from pre-dose baseline",[1]; Day 14,−2.912
same,reduction in combined upper limb tremor amplitude,[1]; Day 14,35.8%
same,reduction in upper limb tremor amplitude,[1]; Day 14,42.8%
same,"TETRAS combined upper limb score, LS mean change from pre-dose baseline",[1]; Day 21 follow-up,−0.278
same,reduction in combined upper limb tremor amplitude,[1]; Day 21 follow-up,2.9%
same,reduction in upper limb tremor amplitude,[1]; Day 21 follow-up,20.3%
same,"TETRAS upper limb score, LS mean change from pre-dose baseline",[1]; Day 21 follow-up (1 week after cessation),−1.183
same,TETRAS CULS Score CFB LS Mean,[1]; [2],−1.667
same,TETRAS PS Item 6: Archimedes Spiral (Left) Score CFB LS Mean,[1]; [2],−0.213
same,TETRAS PS Item 6: Archimedes Spiral (Right) Score CFB LS Mean,[1]; [2],−0.091
same,TETRAS PS Item 7: Handwriting Score CFB LS Mean,[1]; [2],−0.012
same,TETRAS PSTS Score CFB LS Mean,[1]; [2],−1.990
same,TETRAS ULS Score CFB LS Mean,[1]; [2],−1.427
same,TETRAS CULS CTA LS Mean %,[1]; [3],−16.0%
same,TETRAS PS Item 6: Archimedes Spiral (Left) CTA LS Mean %,[1]; [3],−21.8%
same,TETRAS PS Item 6: Archimedes Spiral (Right) CTA LS Mean %,[1]; [3],−9.9%
same,TETRAS PS Item 7: Handwriting CTA LS Mean %,[1]; [3],−1.4%
same,TETRAS PSTS CTA LS Mean %,[1]; [3],−13.3%
same,TETRAS ULS CTA LS Mean %,[1]; [3],−23.9%
same,TETRAS CULS Score CFB LS Mean,[1]; [4],−4.239
same,TETRAS PS Item 6: Archimedes Spiral (Left) Score CFB LS Mean,[1]; [4],−0.468
same,TETRAS PS Item 6: Archimedes Spiral (Right) Score CFB LS Mean,[1]; [4],−0.346
same,TETRAS PS Item 7: Handwriting Score CFB LS Mean,[1]; [4],−0.348
same,TETRAS PSTS Score CFB LS Mean,[1]; [4],−5.163
same,TETRAS ULS Score CFB LS Mean,[1]; [4],−2.912
same,TETRAS CULS CTA LS Mean %,[1]; [5],−35.8%
same,TETRAS PS Item 6: Archimedes Spiral (Left) CTA LS Mean %,[1]; [5],−41.7%
same,TETRAS PS Item 6: Archimedes Spiral (Right) CTA LS Mean %,[1]; [5],−32.9%
same,TETRAS PS Item 7: Handwriting CTA LS Mean %,[1]; [5],−33.0%
same,TETRAS PSTS CTA LS Mean %,[1]; [5],−31.0%
same,TETRAS ULS CTA LS Mean %,[1]; [5],−42.8%
same,TETRAS CULS Score CFB LS Mean,[1]; [6],−0.278
same,TETRAS PS Item 6: Archimedes Spiral (Left) Score CFB LS Mean,[1]; [6],0.201
same,TETRAS PS Item 6: Archimedes Spiral (Right) Score CFB LS Mean,[1]; [6],−0.061
same,TETRAS PS Item 7: Handwriting Score CFB LS Mean,[1]; [6],0.330
same,TETRAS PSTS Score CFB LS Mean,[1]; [6],−1.293
same,TETRAS ULS Score CFB LS Mean,[1]; [6],−1.183
same,TETRAS CULS CTA LS Mean %,[1]; [7],−2.9%
same,TETRAS PS Item 6: Archimedes Spiral (Left) CTA LS Mean %,[1]; [7],20.7%
same,TETRAS PS Item 6: Archimedes Spiral (Right) CTA LS Mean %,[1]; [7],−6.7%
same,TETRAS PS Item 7: Handwriting CTA LS Mean %,[1]; [7],31.6%
same,TETRAS PSTS CTA LS Mean %,[1]; [7],−8.9%
same,TETRAS ULS CTA LS Mean %,[1]; [7],−20.3%
